Here are results for 14 compounds from patent US20260014147A1, “STAT6 DEGRADERS” (Gilead Sciences, Inc., priority 2024, published 2026).

The subject of assay [1] is Eotaxin-3 (CCL26) release in human whole blood stimulated with IL-4. Kind of assay: Human Whole Blood Eotaxin-3 Assay (IL-4 stimulated, inhibition of eotaxin-3 release). It counts as cell-based. The settings on record: Homo sapiens, EC50 provided for test compounds with >80% Emax, geometric mean across assay runs and batches. How it is done: This was a human whole blood assay using recombinant human Interleukin 4 to stimulate the blood and measuring the ability of the test compounds to inhibit eotaxin-3 release. The biological activities of the test compounds have been tested in human whole blood stimulated with IL-4 measuring Eotaxin-3 release. The test compounds were added to 384 well clear flat-bottom plate in a 4-fold serial dilution in triplicates using a liquid handler. Human whole blood stabilized in lithium-heparin tubes was added in a volume of 65 uL per well, resulting in a final DMSO concentration of 0.5%. The plate is incubated for 2 h at 37° C. under 5% CO2/95% air. Subsequently, 5 μL of recombinant human IL-4 (R&D Systems, cat #204-ILB) was added to the wells to a final concentration of 400 pM. The plate was incubated for 48 h at 37° C. under 5% CO2/95% air. The plate was spun down for 10 minutes at 500×g and 20 uL supernatant was harvested and transferred to a 384 well v-bottom plate using a liquid handler and stored at −20° C. until further analysis. 10 uL supernatant was used to measure the level of Eotaxin-3 (CCL26) using Human Eotaxin-3 MSD kit from Mesocsale (Cat #K251UEK-4). The assay was performed according to the manufacture instructions.
The data from the human whole blood eotaxin-3 assay is shown below for Examples 2q11, 2110, and 2c49 (where the effect in % is plotted against the test concentration in M on a log-scale).

For assay [2], the target named is T1, STAT6 (endogenous, HiBiT-tagged) in HeLa LgBiT clone 4.14 cells (Homo sapiens, UniProt P42226).
T1 construct: These cells express endogenous STAT6; host or cells: HeLa LgBiT clone 4.14
T1 sequence (P42226 1-847): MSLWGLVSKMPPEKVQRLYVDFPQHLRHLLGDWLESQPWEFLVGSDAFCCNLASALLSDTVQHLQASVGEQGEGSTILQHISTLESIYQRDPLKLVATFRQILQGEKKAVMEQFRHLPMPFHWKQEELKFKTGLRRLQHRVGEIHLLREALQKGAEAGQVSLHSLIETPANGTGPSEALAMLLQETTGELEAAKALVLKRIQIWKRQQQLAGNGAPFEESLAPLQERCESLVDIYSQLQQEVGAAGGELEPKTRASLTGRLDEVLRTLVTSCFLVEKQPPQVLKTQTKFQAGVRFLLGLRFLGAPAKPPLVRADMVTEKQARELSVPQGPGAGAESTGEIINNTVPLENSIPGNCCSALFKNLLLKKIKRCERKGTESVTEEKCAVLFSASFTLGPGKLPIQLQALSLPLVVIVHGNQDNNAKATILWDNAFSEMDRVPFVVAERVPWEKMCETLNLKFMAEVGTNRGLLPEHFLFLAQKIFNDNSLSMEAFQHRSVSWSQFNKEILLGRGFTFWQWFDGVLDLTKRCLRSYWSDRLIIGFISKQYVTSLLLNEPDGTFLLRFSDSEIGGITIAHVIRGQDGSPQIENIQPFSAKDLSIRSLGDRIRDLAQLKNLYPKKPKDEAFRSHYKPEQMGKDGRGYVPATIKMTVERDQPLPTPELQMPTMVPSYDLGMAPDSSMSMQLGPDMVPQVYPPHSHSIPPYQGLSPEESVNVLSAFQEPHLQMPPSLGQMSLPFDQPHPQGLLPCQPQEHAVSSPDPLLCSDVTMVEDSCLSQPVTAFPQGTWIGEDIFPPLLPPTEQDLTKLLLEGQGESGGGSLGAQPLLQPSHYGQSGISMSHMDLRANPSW
Kind of assay: STAT6 Degrader Assay (HiBiT based, HeLa LgBiT clone 4.14 cells, luminescence, DC50). It counts as cell-based. The settings on record: geometric mean; for Emax: Emax provided for test compounds with <80% Emax (and 2c15), read-out: STAT6 degradation Emax; for DC50: DC50 provided for test compounds with >80% Emax, read-out: STAT6 degradation DC50. The procedure, abridged:
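HeLa LgBiT clone 4.14 cells carry CRISPR-inserted HiBiT on endogenous STAT6; 5000 cells/well were exposed to compound for 4-24 h at 37 °C, 5% CO2. Nano-Glo substrate added for 0.5 h; luminescence reflects remaining STAT6, with terfenadine ([…]) wells defining 100% degradation.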

As to `C[C@@H](c1cc2c(-c3ccc(N)nc3)ccnc2n1C)N1CCC(c2ccc(C(=O)N3CCC(CN4CCN(c5ccc(NC6CCC(=O)NC6=O)cc5F)C[C@H]4C(F)(F)F)CC3)cc2)CC1` (single isomer, unassigned) [Example 2f10], the EC50 in assay [1] came out at 0.385 µM. On the same count and under the same terms, next, `C[C@@H](c1cc2c(-c3ccc(N)nc3)ccnc2n1C)N1CCC(c2ccc(C(=O)N3CCC(CN4CCN(c5ccc(NC6CCC(=O)NC6=O)cc5F)C[C@@H]4C(F)(F)F)CC3)cc2)CC1` (single isomer, unassigned) [Example 2f11]: 0.406 µM; `COc1cc(N2CCN(CC3CCN(C(=O)c4ccc(C5CCN([C@@H](C)c6cc7c(-c8ccc(N)nc8)ccnc7n6C)CC5)cc4)CC3)CC2)ccc1NC1CCC(=O)NC1=O` (stereo partly drawn) [Example 2c40, 3-((4-(4-((1-(4-(1-((S)-1-(4-(6-aminopyridin-3-yl)-1-methyl-1H-pyrrolo[2,3-b]pyridin-2-yl)ethyl)piperidin-4-yl)benzoyl)piperidin-4-yl)methyl)piperazin-1-yl)-2-methoxyphenyl)amino)piperidine-2,6-dione]: 0.112 µM; `CNc1ccc(-c2ccnc3c2cc([C@H](C)N2CC=C(c4c(C)cc(C(=O)N5CCC(CN6CCN(c7ccc(NC8CCC(=O)NC8=O)cc7F)C[C@@H]6C)CC5)cc4F)CC2)n3C)cn1` (stereo partly drawn) [Example 2c47, 3-((3-fluoro-4-((S)-4-((1-(3-fluoro-5-methyl-4-(1-((S)-1-(1-methyl-4-(6-(methylamino)pyridin-3-yl)-1H-pyrrolo[2,3-b]pyridin-2-yl)ethyl)-1,2,3,6-tetrahydropyridin-4-yl)benzoyl)piperidin-4-yl)methyl)-3-methylpiperazin-1-yl)phenyl)amino)piperidine-2,6-dione]: 0.197 µM. Take `CNc1ccc(-c2ccnc3c2cc([C@H](C)N2CC=C(c4c(C)cc(C(=O)N5CCn6nc(CN7CCC(c8ccc(NC9CCC(=O)NC9=O)c(OC)c8)CC7)cc6C5)cc4F)CC2)n3C)cn1` (stereo partly drawn) [Example 2c49, 3-((4-(1-((5-(3-fluoro-5-methyl-4-(1-((S)-1-(1-methyl-4-(6-(methylamino)pyridin-3-yl)-1H-pyrrolo[2,3-b]pyridin-2-yl)ethyl)-1,2,3,6-tetrahydropyridin-4-yl)benzoyl)-4,5,6,7-tetrahydropyrazolo[1,5-a]pyrazin-2-yl)methyl)piperidin-4-yl)-2-methoxyphenyl)amino)piperidine-2,6-dione]: the EC50 in assay [1] amounted to 0.003 µM. For the compound `C[C@H]1CN(c2ccc(NC3CCC(=O)NC3=O)cc2F)CCN1CC1CCN(C(=O)c2ccc(C3CCN([C@@H](C)c4cc5c(-c6ccc(N)nc6)ccnc5n4C)CC3)cc2)CC1` (stereo partly drawn) [Example 2c54, 3-((4-((S)-4-((1-(4-(1-((S)-1-(4-(6-aminopyridin-3-yl)-1-methyl-1H-pyrrolo[2,3-b]pyridin-2-yl)ethyl)piperidin-4-yl)benzoyl)piperidin-4-yl)methyl)-3-methylpiperazin-1-yl)-3-fluorophenyl)amino)piperidine-2,6-dione], the EC50 in assay [1] stood at 0.265 µM. Turning to `Cn1c(CN2CCC(c3ccc(C(=O)N4CCn5c(CN6CCC(c7ccc(NC8CCC(=O)NC8=O)cc7F)CC6)nnc5C4)cc3)CC2)cc2c(-c3ccc4[nH]ncc4c3)ccnc21` (centres unmarked) [Example 2q2, 3-((4-(1-((7-(4-(1-((4-(1H-indazol-5-yl)-1-methyl-1H-pyrrolo[2,3-b]pyridin-2-yl)methyl)-piperidin-4-yl)benzoyl)-5,6,7,8-tetrahydro-[1,2,4]triazolo[4,3-a]pyrazin-3-yl)methyl)piperidin-4-yl)-3-fluorophenyl)amino)piperidine-2,6-dione], the Emax in assay [2] was 70 to 80%.

Turning to `COCc1nc2cc(-c3ccnc4c3cc(CN3CCC(c5ccc(C(=O)N6CCn7nc(CN8CCC(c9ccc(NC%10CCC(=O)NC%10=O)cc9F)C(F)(F)C8)cc7C6)cc5)CC3)n4C)ccc2[nH]1` (centres unmarked) [Example 2q12, 3-((4-(3,3-difluoro-1-((5-(4-(1-((4-(2-(methoxymethyl)-1H-benzo[d]imidazol-5-yl)-1-methyl-1H-pyrrolo[2,3-b]pyridin-2-yl)methyl)piperidin-4-yl)benzoyl)-4,5,6,7-tetrahydropyrazolo[1,5-a]pyrazin-2-yl)methyl)piperidin-4-yl)-3-fluorophenyl)amino)piperidine-2,6-dione], the DC50 in assay [2] is 0.0129 µM. Take `Cn1c(CN2CCC(c3ccc(-c4nnc5ccc(N6CCC(CN7CCN(c8ccc(NC9CCC(=O)NC9=O)cc8F)CC7)CC6)nn45)cc3)CC2)cc2c(-c3ccc(N)nc3)ccnc21` (centres unmarked) [Example 2r1, 3-((4-(4-((1-(3-(4-(1-((4-(6-aminopyridin-3-yl)-1-methyl-1H-pyrrolo[2,3-b]pyridin-2-yl)methyl)-piperidin-4-yl)phenyl)-[1,2,4]triazolo[4,3-b]pyridazin-6-yl)piperidin-4-yl)methyl)piperazin-1-yl)-3-fluorophenyl)-amino)piperidine-2,6-dione]: the DC50 in assay [2] was found to be 0.00035 µM. On to `Cn1c(CN2CCC(c3ccc(C(=O)N4CCC(CN5CCN(Cc6ccc(NC7CCC(=O)NC7=O)cc6)CC5)CC4)cc3)CC2)cc2c(-c3ccc4[nH]ncc4c3)ccnc21` (centres unmarked) [Example 2s1, 3-((4-((4-((1-(4-(1-((4-(1H-indazol-5-yl)-1-methyl-1H-pyrrolo[2,3-b]pyridin-2-yl)methyl)-piperidin-4-yl)benzoyl)piperidin-4-yl)methyl)piperazin-1-yl)methyl)phenyl)amino)piperidine-2,6-dione], for which the Emax in assay [2] lay within 60 to 70%. Still for that read-out and setting: next, `Cn1c(CN2CCC(c3ccc(C(=O)N4CCC(CN5CCN(Cc6ccc(NC7CCC(=O)NC7=O)cc6F)CC5)CC4)cc3)CC2)cc2c(-c3ccc(N)nc3)ccnc21` (centres unmarked) [Example 2s2, 3-((4-((4-((1-(4-(1-((4-(6-aminopyridin-3-yl)-1-methyl-1H-pyrrolo[2,3-b]pyridin-2-yl)methyl)piperidin-4-yl)benzoyl)piperidin-4-yl)methyl)piperazin-1-yl)methyl)-3-fluorophenyl)amino)piperidine-2,6-dione]: 40 to 50%; `Cn1c(CN2CCC(c3ccc(C(=O)N4CCC(CN5CCN(C(=O)c6ccccc6NC6CCC(=O)NC6=O)CC5)CC4)cc3)CC2)cc2c(-c3ccc4[nH]ncc4c3)ccnc21` (centres unmarked) [Example 2t2, 3-((2-(4-((1-(4-(1-((4-(1H-indazol-5-yl)-1-methyl-1H-pyrrolo[2,3-b]pyridin-2-yl)methyl)-piperidin-4-yl)benzoyl)piperidin-4-yl)methyl)piperazine-1-carbonyl)phenyl)amino)piperidine-2,6-dione]: under 20%; `Cn1c(CN2CCC(c3ccc(C(=O)N4CCC(CN5CCN(c6ccc(NC7CCC(=O)NC7=O)nc6)CC5)CC4)cc3)CC2)cc2c(-c3ccc4[nH]ncc4c3)ccnc21` (centres unmarked) [Example 2t3, 3-((5-(4-((1-(4-(1-((4-(1H-indazol-5-yl)-1-methyl-1H-pyrrolo[2,3-b]pyridin-2-yl)methyl)piperidin-4-yl)benzoyl)piperidin-4-yl)methyl)piperazin-1-yl)pyridin-2-yl)amino)piperidine-2,6-dione]: 40 to 50%. As to `Cn1c(CN2CCC(c3ccc(C(=O)N4CCC(OCC#Cc5cccc(NC6CCC(=O)NC6=O)c5)CC4)cc3)CC2)cc2c(-c3ccc4[nH]ncc4c3)ccnc21` (centres unmarked) [Example 2t5, 3-((3-(3-((1-(4-(1-((4-(1H-indazol-5-yl)-1-methyl-1H-pyrrolo[2,3-b]pyridin-2-yl)methyl)-piperidin-4-yl)benzoyl)piperidin-4-yl)oxy)prop-1-yn-1-yl)phenyl)amino)-piperidine-2,6-dione], the Emax in assay [2] lay in the range of 30 to 40%.

In general, EC50 refers to the midpoint of the concentration-response curve. A high value points to a less potent agent. Usually Emax stands for the size of the effect at its maximum, as opposed to the concentration needed. The term DC50 denotes the concentration at which degradation of the target reaches its halfway point.
